Data from US8546343B2, “Aminoglycoside antibiotics targeting bacterial 16S ribosomal RNA” (Eidgenoessische Technische Hochschule Zurich, priority 2007, dated 2013).

Columns and labels:
Assay type in all cases: cell-based, Mycobacterium smegmatis
[1] = tested on: M. smegmatis ΔrrnB (bacterial ribosomes); assay: MIC, recombinant M. smegmatis with bacterial (wild-type) ribosomes; conditions: 72 h at 37° C.
From the text: (§1) The strain used for introduction/selection of mutational alterations was a genetically modified derivative of Mycobacterium smegmatis carrying a single functional chromosomal rRNA operon (Sander et al. Mol. Microbiol. 1996, 22: 841-848). This strain, termed M. smegmatis rrn^−, allowed for the selection of mutational rRNA gene alterations using a plasmid carrying the rRNA gene with the respective mutational alteration.)
(§2) The rRNA gene carried on the plasmid encodes either the complete rRNA operon (Prammananan et al. Antimicrob. Agents Chemother. 1999, 43: 447-453) or a non-functional rRNA gene fragment of approximately 1.0 kb (Pfister et al. Antimicrob. Agents Chemother. 2003, 47: 1496-1502). PCR-mutagenesis in vitro was used to generate the mutagenized rRNA gene fragment. In the case of a partial rRNA gene fragment the mutagenized rRNA gene fragment was cloned into vectors pMV261 or pMV361 (Sander et al. Mol. Microbiol. 2002, 46: 1295-1304; Pfister et al. Antimicrob. Agents Chemother. 2003, 47: 1496-1502) to result in vectors carrying a partial rRNA gene fragment of approximately 1.0 kb with the mutational alteration introduced. In the case of plasmids carrying the complete rRNA operon the mutagenized rRNA gene fragment obtained by PCR was cloned into vectors pMV361 rRNA or pMV261 rRNA using appropriate restriction sites (Prammananan et al. Antimicrob. Agents Chemother. 1999, 43: 447-453). Vectors pMV361 rRNA and pMV261 rRNA carried a complete copy of the rRNA operon from M. smegmatis (Sander et al. Mol. Microbiol. 1997, 26: 469-480). Introduction of mutations into the plasmid encoded rRNA was confirmed by sequencing.
(§3) The single rRNA allelic derivative of M. smegmatis, i.e. M. smegmatis rrn, was used for transformation of the plasmids. The strain was made electro-competent and transformed according to standard techniques and as described previously (Sander et al. Mol. Microbiol. 1997, 26: 469-484). Following primary selection, the plasmid-encoded mutational rRNA gene alteration was transferred into the single chromosomal rRNA operon by means of RecA-mediated homologous recombination (Prammananan at al. Antimicrob. Agents Chemother. 1999, 43: 447-453). Introduction of the mutational rRNA gene alteration into the single functional chromosomal rRNA operon by gene conversion was confirmed by sequence determination.
(§4) Ribosomal drug susceptibility was studied by determining the minimal inhibitory concentrations, as described in detail in Pfister et al. 2003 and 2005 (see above).
(§5) The recombinants carrying the respective mutational alterations in the functional rRNA operon were colony-purified and subjected to determinations of minimal inhibitory concentrations (MIC) to determine ribosomal drug susceptibility. Cultures from single colonies were grown in LB medium supplemented with 0.05% Tween 80 and used for MIC tests in a microtiter plate format. Starting cultures contained 200 μl of bacterial cells at an optical density of 0.025 at 600 nm, and the respective drug was added in twofold series of dilution.
(§6) Key nucleotides which distinguish the prokaryotic from the eukaryotic decoding site are 16S rRNA positions 1408 (bacterial ribosome: A, eukaryotic cytosolic ribosomes: G) and 1491 (bacterial ribosomes: G, eukaryotic cytosolic ribosomes: A, eukaryotic mitochondrial ribosome: C).

[2] = tested on: M. smegmatis ΔrrnB 1408G (16S rRNA position 1408 G, eukaryotic cytosolic ribosomes); assay: MIC, recombinant M. smegmatis with mutant ribosomes 1408G; conditions: M. smegmatis ΔrrnB 1408G mutant ribosomes; 72 h at 37° C.
From the text: as §1, §2, §3, §4, §5, §6

[3] = tested on: M. smegmatis ΔrrnB 1491A (16S rRNA position 1491 A, eukaryotic cytosolic ribosomes); assay: MIC, recombinant M. smegmatis with mutant ribosomes 1491A; conditions: M. smegmatis ΔrrnB 1491A mutant ribosomes; 72 h at 37° C.
From the text: as §1, §2, §3, §4, §5, §6

[4] = tested on: M. smegmatis ΔrrnB 1491C (16S rRNA position 1491 C, eukaryotic mitochondrial ribosome); assay: MIC, recombinant M. smegmatis with mutant ribosomes 1491C; conditions: M. smegmatis ΔrrnB 1491C mutant ribosomes; 72 h at 37° C.
From the text: as §1, §2, §3, §4, §5, §6

SMILES | minimal inhibitory concentrations ΔrrnB [1] [µg/mL] | minimal inhibitory concentrations ΔrrnB 1408G [2] | minimal inhibitory concentrations ΔrrnB 1491A [3] [µg/mL] | minimal inhibitory concentrations ΔrrnB 1491C [4]
NC[C@@H]1O[C@H](O[C@H]2[C@@H](O)[C@H](O[C@@H]3[C@@H](O)[C@H](N)C[C@H](N)[C@H]3O[C@H]3O[C@@H]4CO[C@@H](c5cccc(Cl)c5)O[C@H]4[C@H](O)[C@H]3N)O[C@@H]2CO)[C@H](N)[C@@H](O)[C@@H]1O [Compound 5.15, 4′,6′-O-m-chlorobenzylideneparomomycin] | 2 to 4 | 256 to 512 µg/mL | 512 | 512 µg/mL
NC[C@@H]1O[C@H](O[C@H]2[C@@H](O)[C@H](O[C@@H]3[C@@H](O)[C@H](N)C[C@H](N)[C@H]3O[C@H]3O[C@H](CN)[C@@H](O)[C@H](O)[C@H]3N)O[C@@H]2CO)[C@H](N)[C@@H](O)[C@@H]1O [Neomycin B, reference compound] | 0.5 to 1 | >512 µg/mL | 4 | 16 to 32 µg/mL
CC(=O)O.CC(=O)O.CC(=O)O.CC(=O)O.COc1cccc(C2OCC3OC(OC4C(N)CC(N)C(O)C4OC4OC(CO)C(OC5OC(CN)C(O)C(O)C5N)C4O)C(N)C(O)C3O2)c1 (centres unmarked) [Compound 5.3, 4′,6′-O-m-Methoxybenzylideneparomomycin tetraacetate] | 4 to 8 | 256 to 512 µg/mL | 512 | >512 µg/mL
NC[C@@H]1O[C@H](O[C@H]2[C@@H](O)[C@H](O[C@@H]3[C@@H](O)[C@H](N)C[C@H](N)[C@H]3O[C@H]3O[C@@H]4CO[C@@H](c5cc(Cl)cc(Cl)c5)O[C@H]4[C@H](O)[C@H]3N)O[C@@H]2CO)[C@H](N)[C@@H](O)[C@@H]1O [Compound 5.9, 4,6′-O-3,5-Dichlorobenzylideneparomomycin] | 4 | 128 to 256 µg/mL | 128 to 256 | 128 µg/mL
COc1ccccc1[C@@H]1OC[C@H]2O[C@H](O[C@H]3[C@H](O[C@@H]4O[C@H](CO)[C@@H](O[C@H]5O[C@@H](CN)[C@@H](O)[C@H](O)[C@H]5N)[C@H]4O)[C@@H](O)[C@H](N)C[C@@H]3N)[C@H](N)[C@@H](O)[C@@H]2O1 [Compound 5.4, 4,6′-O-o-Methoxybenzylideneparomomycin] | 8 to 16 | >512 µg/mL | >512 | >512 µg/mL
COc1ccc([C@@H]2OC[C@H]3O[C@H](O[C@H]4[C@H](O[C@@H]5O[C@H](CO)[C@@H](O[C@H]6O[C@@H](CN)[C@@H](O)[C@H](O)[C@H]6N)[C@H]5O)[C@@H](O)[C@H](N)C[C@@H]4N)[C@H](N)[C@@H](O)[C@@H]3O2)cc1 [Compound 5.2, 4′,6′-O-p-Methoxybenzylideneparomomycin] | 4 | >512 µg/mL | >512 | >512 µg/mL
NC[C@@H]1O[C@H](O[C@H]2[C@@H](O)[C@H](O[C@@H]3[C@@H](O)[C@H](N)C[C@H](N)[C@H]3O[C@H]3O[C@H](CO)[C@@H](OCc4ccc(C(F)(F)F)cc4)[C@H](O)[C@H]3N)O[C@@H]2CO)[C@H](N)[C@@H](O)[C@@H]1O [Compound 19b, 4′-p-(trifluoromethyl)benzylparomomycin] | 8 | >512 µg/mL | >512 | ≧512 μg/ml
NC[C@@H]1O[C@H](O[C@H]2[C@@H](O)[C@H](O[C@@H]3[C@@H](O)[C@H](N)C[C@H](N)[C@H]3O[C@H]3O[C@@H]4CO[C@@H](Cc5ccccc5)O[C@H]4[C@H](O)[C@H]3N)O[C@@H]2CO)[C@H](N)[C@@H](O)[C@@H]1O [Compound 5.24] | 64 | 256 µg/mL | 256 | 128 to 256 µg/mL
CC(=O)O.CC(=O)O.CC(=O)O.NC[C@@H]1O[C@H](O[C@H]2[C@@H](O)[C@H](O[C@@H]3[C@@H](O)[C@H](N)C[C@H](N)[C@H]3O[C@H]3O[C@@H]4COC(c5cccc([N+](=O)[O-])c5)O[C@H]4[C@H](O)[C@H]3N)O[C@@H]2CO)[C@H](N)[C@@H](O)[C@@H]1O (some centres unmarked) [Compound 5.7, 4,6′-O-m-Nitrobenzylideneparomomycin triacetate] | 2 to 4 | 256 to 512 µg/mL | 256 | >512 µg/mL
COc1ccc(COC2C(CO)OC(OC3C(N)CC(N)C(O)C3OC3OC(CO)C(OC4OC(CN)C(O)C(O)C4N)C3O)C(N)C2O)cc1 (centres unmarked) [Compound 19e, 4′-p-Methoxybenzylparomomycin] | 8 | >512 µg/mL | >512 | >512 µg/mL
NC[C@@H]1O[C@H](O[C@H]2[C@@H](O)[C@H](O[C@@H]3[C@@H](O)[C@H](N)C[C@H](N)[C@H]3O[C@H]3O[C@@H]4COC(c5cccs5)O[C@H]4[C@H](O)[C@H]3N)O[C@@H]2CO)[C@H](N)[C@@H](O)[C@@H]1O (some centres unmarked) [Compound 5.22, 4′,6′-O-2-Thiophenylideneparomomycin] | 8 to 16 | >512 µg/mL | >512 | >512 µg/mL
NCC1OC(OC2C(CO)OC(OC3C(O)C(N)CC(N)C3OC3OC(COCc4ccccc4)C(O)C(O)C3N)C2O)C(N)C(O)C1O (centres unmarked) [Compound 15, 6′-O-Benzylparomomycin] | 32 to 64 | >512 µg/mL | >512 | >512 µg/mL
COc1ccc(OC)c(C2OC[C@H]3O[C@H](O[C@H]4[C@H](O[C@@H]5O[C@H](CO)[C@@H](O[C@H]6O[C@@H](CN)[C@@H](O)[C@H](O)[C@H]6N)[C@H]5O)[C@@H](O)[C@H](N)C[C@@H]4N)[C@H](N)[C@@H](O)[C@@H]3O2)c1 (some centres unmarked) [Compound 5.5, 4′,6′-O-2,5-Dimethoxybenzylideneparomomycin] | 4 to 8 | ≧512 μg/ml | >512 | >512 µg/mL
NC[C@@H]1O[C@H](O[C@H]2[C@@H](O)[C@H](O[C@@H]3[C@@H](O)[C@H](N)C[C@H](N)[C@H]3O[C@H]3O[C@@H]4CO[C@@H](c5cccc6ccccc56)O[C@H]4[C@H](O)[C@H]3N)O[C@@H]2CO)[C@H](N)[C@@H](O)[C@@H]1O [Compound 5.19, 4′,6′-O-1-Naphthylideneparomomycin] | 4 to 8 | 512 µg/mL | 256 to 512 | 256 µg/mL
